Measurements reported in US11198713B2, “Agents modulating beta-catenin functions and methods thereof” (FOG PHARMACEUTICALS, INC., priority 2017, dated 2021).
Numbered stars: 1 amine (or outer) side, 2 acyl side, 3 side chain; on linkers, the order of the positions; unused ones are H or OH. Bridge positions count the residues as written; N and C are the ends. Square brackets hold non-standard residues; d marks the D form. Peptide text beside a SMILES is read from it. dαMeDab(Me) = CN(CC[C@@](C)(N[*:1])C(=O)[*:2])[*:3]; dαMeDap(Me) = CN(C[C@@](C)(N[*:1])C(=O)[*:2])[*:3]; X2 = O=C(OCC=CCOC(=O)[*:2])[*:1]

What follows are compounds tested against T1, full-length beta-catenin (Axin site) (Homo sapiens, UniProt P35222) (assay: Competition fluorescence polarization assay (Axin site probe)). Conditions: competition fluorescence polarization, Table 2; read-out: in vitro FP EC50.
T1 construct: 15 nM full-length beta-catenin, 20 nM FITC labeled peptide in buffer
T1 sequence (P35222 1-781): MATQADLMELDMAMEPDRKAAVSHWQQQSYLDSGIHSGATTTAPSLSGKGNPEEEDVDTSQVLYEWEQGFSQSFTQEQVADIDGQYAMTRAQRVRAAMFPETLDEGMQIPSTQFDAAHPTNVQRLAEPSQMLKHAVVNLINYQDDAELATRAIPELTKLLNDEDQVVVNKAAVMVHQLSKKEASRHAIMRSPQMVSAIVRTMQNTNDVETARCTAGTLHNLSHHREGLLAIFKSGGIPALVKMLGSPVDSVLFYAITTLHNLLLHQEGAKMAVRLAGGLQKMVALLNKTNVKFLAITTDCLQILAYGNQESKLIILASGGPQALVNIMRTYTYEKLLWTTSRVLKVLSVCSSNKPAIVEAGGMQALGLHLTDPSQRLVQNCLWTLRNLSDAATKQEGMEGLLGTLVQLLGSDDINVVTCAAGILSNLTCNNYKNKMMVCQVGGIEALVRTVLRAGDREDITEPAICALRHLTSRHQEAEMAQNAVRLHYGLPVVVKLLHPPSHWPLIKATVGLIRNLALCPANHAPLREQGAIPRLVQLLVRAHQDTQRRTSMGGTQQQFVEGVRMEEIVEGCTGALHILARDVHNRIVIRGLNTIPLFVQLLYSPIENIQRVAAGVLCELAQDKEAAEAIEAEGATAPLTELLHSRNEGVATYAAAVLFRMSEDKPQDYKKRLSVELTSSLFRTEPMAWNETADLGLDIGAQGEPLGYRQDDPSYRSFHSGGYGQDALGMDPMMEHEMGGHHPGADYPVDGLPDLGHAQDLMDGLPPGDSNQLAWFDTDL
Type: binding
Outline: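 Competition FP: 15 nM full-length β-catenin pre-incubated 5 min with 20 nM FITC-labelled stapled Axin-site peptide, then titrated peptide added (3-fold series from 5 μM) for 15 min in the dark. Buffer 50 mM Tris pH 8.0, 250 mM NaCl, 2% glycerol, 0.5 mM EDTA; duplicate reads.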

SMILES	EC50
CC[C@H](C)[C@@H]1NC(=O)[C@H](Cc2ccccn2)NC(=O)[C@H](C)NC(=O)[C@H](CC(=O)O)NC(=O)[C@H](CC(C)C)NC(=O)[C@H]([C@@H](C)CC)NC(=O)[C@](C)(NC(=O)[C@H](C)NC(C)=O)CCCCCCC=CCOC(=O)N2CC[C@@](C(=O)N[C@@H](Cc3cccnc3)C(=O)N[C@H](C(=O)N[C@@H](Cc3c[nH]c4ccccc34)C(N)=O)C(C)C)(C2)NC1=O (single isomer, unassigned) [FP0573c Isomer 1, Ac-A-R8-I-L-D-A-2pyr-I-MB-3pyr-V-W-NH2]	> 5000 nM
CC[C@H](C)[C@@H]1NC(=O)[C@H](Cc2c[nH]cn2)NC(=O)[C@H](C)NC(=O)[C@H](CC(=O)O)NC(=O)[C@H](CC(C)C)NC(=O)[C@H]([C@@H](C)CC)NC(=O)[C@](C)(NC(=O)[C@H](C)NC(C)=O)CCCN(C)C(=O)OCC=CCCCC[C@@](C)(C(=O)N[C@@H](CCCNC(=N)N)C(=O)N[C@H](C(=O)N[C@@H](Cc2c[nH]c3ccccc23)C(N)=O)C(C)C)NC1=O [FP0507c, Ac-A-MI-I-L-D-A-H-I-S6-R-V-W-NH2]	500 to 5000 nM
CC[C@H](C)[C@@H]1NC(=O)[C@](C)(NC(=O)[C@H](C)NC(=O)[C@@H]2CCCN2C(C)=O)CCCC=CCCCCCC[C@@](C)(C(=O)N[C@@H](CCCNC(=N)N)C(=O)N[C@H](C(=O)N[C@@H](Cc2c[nH]c3ccccc23)C(N)=O)C(C)C)NC(=O)[C@H](C(C)C)NC(=O)[C@H](Cc2c[nH]cn2)NC(=O)[C@H](C)NC(=O)[C@H](CC(=O)O)NC(=O)[C@H](CC(C)C)NC1=O (single isomer, unassigned) [FP0212s Isomer 2, Ac-P-A-R5-I-L-D-A-H-V-S8-R-V-W-NH2]	100 to 500 nM
CC[C@H](C)[C@@H]1NC(=O)[C@H](Cc2ccccn2)NC(=O)[C@H](C)NC(=O)[C@H](CC(=O)O)NC(=O)[C@H](CC(C)C)NC(=O)[C@H]([C@@H](C)CC)NC(=O)[C@](C)(NC(=O)[C@H](C)NC(C)=O)CCCCCCC=CCOC(=O)N2CC[C@@](C(=O)N[C@@H](Cc3cccnc3)C(=O)N[C@H](C(=O)N[C@@H](Cc3c[nH]c4ccccc34)C(N)=O)C(C)C)(C2)NC1=O (single isomer, unassigned) [FP0573c Isomer 2, Ac-A-R8-I-L-D-A-2pyr-I-MB-3pyr-V-W-NH2]	> 5000 nM
CC[C@H](C)[C@@H]1NC(=O)[C@H](Cc2c[nH]cn2)NC(=O)[C@H](C)NC(=O)[C@H](CC(=O)O)NC(=O)[C@H](CC(C)C)NC(=O)[C@H]([C@@H](C)CC)NC(=O)[C@](C)(NC(=O)[C@H](C)NC(C)=O)CCCC=CCOC(=O)N(C)CC[C@@](C)(C(=O)N[C@@H](CCCNC(=N)N)C(=O)N[C@H](C(=O)N[C@@H](Cc2c[nH]c3ccccc23)C(N)=O)C(C)C)NC1=O [FP0501c, Ac-A-R5-I-L-D-A-H-I-MF-R-V-W-NH2]	100 to 500 nM
CC[C@H](C)[C@@H]1NC(=O)[C@H](Cc2c[nH]cn2)NC(=O)[C@H](C)NC(=O)[C@H](CC(=O)O)NC(=O)[C@H](CC(C)C)NC(=O)[C@H]([C@@H](C)CC)NC(=O)[C@](C)(NC(=O)[C@H](C)NC(C)=O)CN(C)C(=O)OCC=CCCCCCC[C@@](C)(C(=O)N[C@@H](CCCNC(=N)N)C(=O)N[C@H](C(=O)N[C@@H](Cc2c[nH]c3ccccc23)C(N)=O)C(C)C)NC1=O (single isomer, unassigned) [FP0335c Isomer 2, Ac-A-ME-I-L-D-A-H-I-S8-R-V-W-NH2]	< 100 nM
CC[C@H](C)[C@@H]1NC(=O)[C@H](Cc2c[nH]cn2)NC(=O)[C@H](C)NC(=O)[C@H](CC(N)=O)NC(=O)[C@H](CC(C)C)NC(=O)[C@H]([C@@H](C)CC)NC(=O)[C@](C)(NC(=O)[C@H](C)NC(C)=O)CCCCCCC=CCOC(=O)N2CC[C@@](C(=O)N[C@@H](CCCNC(=N)N)C(=O)N[C@H](C(=O)N[C@@H](Cc3c[nH]c4ccccc34)C(N)=O)C(C)C)(C2)NC1=O [FP0218c, Ac-A-R8-I-L-N-A-H-I-MB-R-V-W-NH2]	100 to 500 nM
CC[C@H](C)[C@@H]1NC(=O)[C@H](Cc2c[nH]cn2)NC(=O)[C@H](C)NC(=O)[C@H](CC(=O)O)NC(=O)[C@H](CC(C)C)NC(=O)[C@H]([C@@H](C)CC)NC(=O)[C@](C)(NC(=O)[C@H](C)NC(C)=O)CCN(C)C(=O)OCC=CCOC(=O)N(C)C[C@](C)(C(=O)N[C@@H](CCCNC(=N)N)C(=O)N[C@H](C(=O)N[C@@H](Cc2c[nH]c3ccccc23)C(N)=O)C(C)C)NC1=O [FP0596c, Ac-A-MG-I-L-D-A-H-I-ME-R-V-W-NH2] (Ac-A[dαMeDab(Me)]ILDAHI[dαMeDap(Me)]RVW-NH2; linker 2-9 via X2)	500 to 5000 nM
CC[C@H](C)[C@@H]1NC(=O)[C@H](Cc2ccccn2)NC(=O)[C@H](C)NC(=O)[C@H](CC(=O)O)NC(=O)[C@H](CC(C)C)NC(=O)[C@H]([C@@H](C)CC)NC(=O)[C@](C)(NC(=O)[C@H](C)NC(C)=O)CCCCCCC=CCOC(=O)N2CC[C@@](C(=O)N[C@H](C(=O)N[C@H](C(=O)N[C@@H](Cc3c[nH]c4ccccc34)C(N)=O)C(C)C)C(C)(C)C)(C2)NC1=O (single isomer, unassigned) [FP0568c Isomer 2, Ac-A-R8-I-L-D-A-2pyr-I-MB-tLeu-V-W-NH2]	> 5000 nM
CC[C@H](C)[C@@H]1NC(=O)[C@H](Cc2ccccn2)NC(=O)[C@H](C)NC(=O)[C@H](CC(=O)O)NC(=O)[C@H](CC(C)C)NC(=O)[C@H]([C@@H](C)CC)NC(=O)[C@](C)(NC(=O)[C@H](C)NC(C)=O)CCCCCCC=CCOC(=O)N2CC[C@@](C(=O)N[C@@H](Cc3ccc(C)cc3)C(=O)N[C@H](C(=O)N[C@@H](Cc3c[nH]c4ccccc34)C(N)=O)C(C)C)(C2)NC1=O (single isomer, unassigned) [FP0578c Isomer 2, Ac-A-R8-I-L-D-A-2pyr-I-MB-4MeF-V-W-NH2]	> 5000 nM
CC[C@H](C)[C@@H]1NC(=O)[C@H](Cc2ccccn2)NC(=O)[C@H](C)NC(=O)[C@H](CC(=O)O)NC(=O)[C@H](CC(C)C)NC(=O)[C@H]([C@@H](C)CC)NC(=O)[C@](C)(NC(=O)[C@H](C)NC(C)=O)CCCCCCC=CCOC(=O)N2CC[C@@](C(=O)N[C@@H](Cc3ccc(OC)cc3)C(=O)N[C@H](C(=O)N[C@@H](Cc3c[nH]c4ccccc34)C(N)=O)C(C)C)(C2)NC1=O (single isomer, unassigned) [FP0575c Isomer 2, Ac-A-R8-I-L-D-A-2pyr-I-MB-MeY-V-W-NH2]	> 5000 nM

Same assay, conditions: competition with FITC labeled Axin-site probe, 15 nM full-length beta-catenin; read-out: FP EC50

SMILES	EC50
CC[C@H](C)[C@@H]1NC(=O)[C@]2(NC(=O)[C@H](CCC(N)=O)NC(=O)[C@@H]3CCCN3C(C)=O)CCN(CC=CCCCCC[C@@](C)(C(=O)N[C@@H](Cc3c[nH]cn3)C(=O)N[C@H](C(=O)N[C@@H](CCCNC(=N)N)C(=O)N[C@@H](CCCNC(=N)N)C(=O)N[C@H](C(=O)N[C@@H](Cc3c[nH]c4ccccc34)C(=O)N[C@@H](CCCNC(=N)N)C(N)=O)C(C)C)C(C)C)NC(=O)[C@H](CC(=O)O)NC(=O)[C@H](CC(C)C)NC1=O)C2 (single isomer, unassigned) [FP-0753, Ac-P-Q-PS-I-L-D-S7-H-V-R-R-V-W-R-NH2]	> 5000 nM
CC[C@H](C)[C@@H]1NC(=O)[C@@]2(NC(=O)[C@H](CCC(N)=O)NC(=O)[C@@H]3CCCN3C(C)=O)CCN(CC=CCCC[C@](C)(C(=O)N[C@@H](Cc3c[nH]cn3)C(=O)N[C@H](C(=O)N[C@@H](CCCNC(=N)N)C(=O)N[C@@H](CCCNC(=N)N)C(=O)N[C@H](C(=O)N[C@@H](Cc3c[nH]c4ccccc34)C(=O)N[C@@H](CCCNC(=N)N)C(N)=O)C(C)C)C(C)C)NC(=O)[C@H](CC(=O)O)NC(=O)[C@H](CC(C)C)NC1=O)C2 (single isomer, unassigned) [FP-0743, Ac-P-Q-PR-I-L-D-R5-H-V-R-R-V-W-R-NH2]	> 5000 nM
